Measured values reported in US10640545B2 (THE GOVERNORS OF THE UNIVERSITY OF ALBERTA, priority 2017, dated 2020).
Entries after “also recorded” stand apart in the source; their conditions may differ. *1 amine or outer side, *2 acyl side, *3 side chain or, on linkers, in order; H or OH if unused. Where a SMILES comes first, the peptide text is derived from it. [ ]: non-standard residue; d: D form. Phe(4-Br) = N[C@@H](Cc1ccc(Br)cc1)C(=O)O; azaLeu = CC(C)CN(N[*:1])C(=O)[*:2]; αMeR = C[C@](N)(CCCNC(=N)N)C(=O)O; pGlu = O=C1CC[C@@H](C(=O)O)N1; Nle = CCCC[C@H](N)C(=O)O; Aib = CC(C)(N)C(=O)O

Columns and labels:
[1] = system: recombinant human neprilysin (rhNEP, Sino Biological); experiment: rhNEP diluted in Tris buffer (100 mM Tris, 100 mM NaCl, 10 μM ZnCl2, pH 7.5), 3.1 nM final concentration; conditions: 37° C., up to 72 h
isolated rat hearts = experiment: Langendorff isolated heart, ischemia-reperfusion injury; conditions: ex vivo heart, 30 min ischemia, peptide at start of reperfusion for 10 min at 1 pM
Experimental: The ex vivo heart was assessed for a variety of parameters (heart rate (HR); left ventricle developed pressure (LVDP); maximum derivative of change in systolic pressure over time (max dP/dt); minimum derivative of change in diastolic pressure over time (min dP/dt); and rate-pressure product (RPP)) indicative of general heart function and performance (FIG. 11).
Langendorff heart perfusion and ischemia-reperfusion injury were prepared and cardiac function was measured. Mice were heparinized and anaesthetized with 1.5-2% isoflurane inhalation. The heart was excised, mounted on a Langendorff system, and perfused at a consistent pressure of 80 mmHg with modified Krebs-Henseleit solution (116 mM NaCl, 3.2 mM KCl, 2.0 mM CaCl2), 1.2 mM MgSO4, 25 mM NaHCO3, 1.2 mM KH2PO4, 11 mM glucose, 0.5 mM EDTA and 2 mM pyruvate), which was kept at 37° C. and continuously oxygenated with 95% O2 and 5% CO2 which maintained the perfusion buffer at pH 7.4. After stabilization and 10 min baseline recording, global ischemia was induced for 30 min followed by 40 min of reperfusion. Apelin 17 (2) or apelin peptides (11, 17, 18, or 19) were given at the start of reperfusion for 10 min at a concentration of 1 pM. Left ventricular functions were obtained continuously by PowerLab system (ADInstruments, Australia). Data was reported as mean value of every 5 min. Left ventricular functions were reported as: Left Ventricular Developed Pressure (LVDP); Heart rate (HR); maximum derivative of change in systolic pressure over time (max dP/dt); minimum derivative of change in diastolic pressure over time (min dP/dt); and Rate Pressure Product (RPP).

in vitro = conditions: human, plasma
[2] = target: T1, wild-type rat apelin receptor (Rattus norvegicus, UniProt Q9JHG3); experiment: Radioligand binding, displacement of [125I]-pyr-1-apelin-13 on CHO cell membranes; conditions: for Ki: displacement of [125I]-pyr-1-apelin-13 (0.2 nM), CHO membranes, rat apelin receptor-EGFP, means ± SE, read-out: Affinity Ki
T1 construct: expressed in transfected cells
T1 sequence (Q9JHG3 1-377): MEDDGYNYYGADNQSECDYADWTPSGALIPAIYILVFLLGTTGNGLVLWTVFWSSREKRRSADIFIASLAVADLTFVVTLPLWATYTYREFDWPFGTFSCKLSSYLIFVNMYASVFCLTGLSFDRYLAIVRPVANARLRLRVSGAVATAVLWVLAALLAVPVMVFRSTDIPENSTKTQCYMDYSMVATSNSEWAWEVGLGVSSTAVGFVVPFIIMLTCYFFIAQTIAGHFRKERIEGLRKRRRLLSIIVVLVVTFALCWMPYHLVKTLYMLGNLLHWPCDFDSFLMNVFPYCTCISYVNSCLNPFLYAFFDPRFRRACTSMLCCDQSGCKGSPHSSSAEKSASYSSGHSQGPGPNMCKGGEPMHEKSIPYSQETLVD
Experimental: This experiment evaluated the ability of peptides of the present embodiments to bind to the wild-type rat apelin receptor, in order to examine the impact of synthetic modification within the critical RPRL motif of the apelin peptides.
Membrane preparations from CHO cells stably expressing the wild-type rat apelin receptor-EGFP were prepared as previously described (Gerbier et al., New Structural Insights Into The Apelin Receptor: Identification Of Key Residues For Apelin binding; FASEB J. 2015, 29, 314-322; Iturrioz et. al., Development Of Original Metabolically-Stable Apelin-17 Peptides With Diuretic And Cardiovascular Effects; FASEB J. 2017, 31, 687-700.) Crude membrane preparations (1 μg total mass of membranes/assay) were incubated for 3 h at 20° C. with 0.2 nM [^125I]-pyr-1-apelin-13 (monoiodinated on Lys^8 with Bolton-Hunter reagent, Perkin Elmer, Wellesley, Mass., USA) in binding buffer (50 mM HEPES, 5 mM MgCl2 1149 pH 7.5, BSA 1%) alone or in presence of the different compounds at various concentrations. The reaction was stopped by adding 4 mL of cold binding buffer, filtered on Whatman GF/C filters and washed with 5 mL of cold binding buffer. Radioactivity was then counted using a Wizard 1470 Wallac gamma counter (Perkin Elmer, Turku, Finland). Binding experiment data were analyzed with Graph Pad Prism.

anesthetized mice = experiment: Blood pressure assay in anesthetized mice; format: in vivo; conditions: 1.4 μM/kg body weight injected; for blood pressure lowering (hypotensive) effect: SBP, DBP, MABP
Experimental: Synthetic peptides 8-19 were tested for blood pressure lowering abilities in anesthetized mice. Apelin peptides were injected through […], monitoring blood pressure (BP) and heart rate (HR) over 60 minutes.
Mice were anaesthetized with 1.5% isoflurane/oxygen, and body temperature was monitored and maintained at 36° C. by a heating pad. The aorta was cannulated via the right carotid artery using a PV loop catheter (Model 1.2F from Scisense, Transonic) in order to continuously record arterial blood pressure and heart rate (LabScribe 2.0, Scisense). […] Results are reported as systolic blood pressure (SBP), diastolic blood pressure (DBP), mean arterial blood pressure (MABP) and heart rate (HR).
Apelin peptides 11, 56-59 as well as the KLKB1-cleavage fragments 54 and 55 were tested for blood pressure lowering abilities in anesthetized mice.
Mice were anesthetized with 1.5% isoflurane/oxygen, and body temperature was monitored and maintained at 36° C. by a heating pad. The aorta was cannulated via the right carotid artery using a PV loop catheter (model 1.2F from Scisense, Transonic) in order to continuously record arterial blood pressure and heart rate (LabScribe 2.0, Scisense). Compounds 11, and 54-59 or 55-59 (1.4 μM/kg body weight) or the same volume of saline was injected via the right jugular vein. Results are reported as systolic blood pressure (SBP), diastolic blood pressure (DBP), mean arterial blood pressure (MABP), and heart rate (HR) shown in FIGS. 15A-D.
Apelin peptides were delivered systemically via the right internal jugular vein while blood pressure (BP) and heart rate (HR) were continuously monitored in the aorta cannulated via the right carotid artery. All N-terminally extended apelin peptides, except 58, show pronounced and time-stable blood pressure lowering effects (FIGS. 15a-d). […] This correlates with the results obtained from the Ca^2+ mobilization assay.

| Molecule | cleaved bond [1] | remaining at 0.5 h, 80 µM (in vitro) | remaining at 1 h, 80 µM (in vitro) | also measured |
| --- | --- | --- | --- | --- |
| Lys-Phe-Arg-Arg-Gln-Arg-Pro-Arg-azaLeu-Ser-His-Lys-Gly-Pro-Nle-Aib-paraBrPhe | Nle15-Aib16, minor | – | – | – |
| Lys-Phe-Arg-Arg-Gln-Arg-Pro-αMeArg-Leu-Ser-His-Lys-Gly-Pro-Nle-Aib-paraBrPhe | Nle15-Aib16, minor | – | – | – |
| pGlu-Arg-Pro-Arg-NMeLeu-Ser-His-Lys-Gly-Pro-Nle-Aib-paraBrPhe | Nle11-Aib12, minor | – | – | – |
| CCCC[C@H](NC(=O)[C@@H]1CCCN1C(=O)CNC(=O)[C@H](CCCCN)NC(=O)[C@H](Cc1c[nH]cn1)NC(=O)[C@H](CO)NC(=O)[C@@H](CC(C)C)NC(=O)[C@H](CCCNC(=N)N)NC(=O)[C@@H]1CCCN1C(=O)[C@H](CCCNC(=N)N)NC(=O)[C@H](CCC(N)=O)NC(=O)[C@H](CCCNC(=N)N)NC(=O)[C@H](CCCNC(=N)N)NC(=O)[C@H](Cc1ccccc1)NC(=O)[C@@H](N)CCCCN)C(=O)NC(C)(C)C(=O)N[C@@H](Cc1ccc(Br)cc1)C(=O)O [Peptide 9] (H-KFRRQRPR[dL]SHKGP[Nle][Aib][Phe(4-Br)]-OH; N-terminus and C-terminus assumed) | – | 80 ± 3% | 80 ± 4% | Ki [2]: 140 ± 56 pM; effect on heart rate (HR) (anesthetized mice): had an impact on the heart rate; blood pressure lowering (hypotensive) effect (anesthetized mice): inactivity; also recorded: without inducing any vasoactive effects |
| Lys-Phe-Arg-Arg-Gln-Arg-Pro-Arg-αMeLeu-Ser-His-Lys-Gly-Pro-Nle-Aib-paraBrPhe | Nle15-Aib16, minor | – | – | – |
| pGlu-Arg-Pro-azaArg-Leu-Ser-His-Lys-Gly-Pro-Nle-Aib-paraBrPhe | Nle11-Aib12, minor | – | – | – |

Continued, in another order:

| cleaved bond [1] | remaining at 0.5 h, 80 µM (in vitro) | remaining at 1 h, 80 µM (in vitro) | Molecule | also measured |
| --- | --- | --- | --- | --- |
| Nle11-Aib12, minor | – | – | pGlu-Arg-Pro-Arg-azaLeu-Ser-His-Lys-Gly-Pro-Nle-Aib-paraBrPhe | – |
| – | 19 ± 5% | 2 ± 1% | CCCC[C@H](NC(=O)[C@@H]1CCCN1C(=O)CNC(=O)[C@H](CCCCN)NC(=O)[C@H](Cc1c[nH]cn1)NC(=O)[C@H](CO)NC(=O)N(CC(C)C)NC(=O)[C@H](CCCNC(=N)N)NC(=O)[C@@H]1CCCN1C(=O)[C@H](CCCNC(=N)N)NC(=O)[C@@H]1CCC(=O)N1)C(=O)NC(C)(C)C(=O)N[C@@H](Cc1ccc(Br)cc1)C(=O)O [Peptide 18, pGlu-Arg-Pro-Arg-azaLeu-Ser-His-Lys-Gly-Pro-Nle-Aib-paraBrPhe] ([pGlu]RPR[azaLeu]SHKGP[Nle][Aib][Phe(4-Br)]-OH; C-terminus assumed) | ability to rescue the heart from ischemic reperfusion injury (isolated rat hearts): behaved comparably to that of the negative saline control; Ki [2]: 130 ± 63 pM; receptor binding affinity (in words) ([2]; rat apelin receptor): modest improvement in receptor binding |
| Nle11-Aib12, minor | – | – | pGlu-Arg-Pro-αMeArg-Leu-Ser-His-Lys-Gly-Pro-Nle-Aib-paraBrPhe | – |
| – | 77 ± 19% | 65 ± 14% | CCCC[C@H](NC(=O)[C@@H]1CCCN1C(=O)CNC(=O)[C@H](CCCCN)NC(=O)[C@H](Cc1c[nH]cn1)NC(=O)[C@H](CO)NC(=O)[C@H](CC(C)C)NC(=O)[C@H](CCCNC(=N)N)NC(=O)[C@@H]1CCCN1C(=O)[C@H](CCCNC(=N)N)NC(=O)[C@@H]1CCC(=O)N1)C(=O)NC(C)(C)C(=O)N[C@@H](Cc1ccc(Br)cc1)C(=O)O [Peptide 4] ([pGlu]RPRLSHKGP[Nle][Aib][Phe(4-Br)]-OH; C-terminus assumed) | weaker affinity compared to 1, by a factor ([2]; ratio of Ki to native 1): 6; blood pressure lowering (hypotensive) effect (anesthetized mice): potent physiological effects |
| Nle11-Aib12, minor | – | – | pGlu-Arg-Pro-Arg-αMeLeu-Ser-His-Lys-Gly-Pro-Nle-Aib-paraBrPhe | – |
| – | 61 ± 10% | 55 ± 4% | CCCC[C@H](NC(=O)[C@@H]1CCCN1C(=O)CNC(=O)[C@H](CCCCN)NC(=O)[C@H](Cc1c[nH]cn1)NC(=O)[C@H](CO)NC(=O)[C@H](CC(C)C)NC(=O)[C@](C)(CCCNC(=N)N)NC(=O)[C@@H]1CCCN1C(=O)[C@H](CCCNC(=N)N)NC(=O)[C@H](CCC(N)=O)NC(=O)[C@H](CCCNC(=N)N)NC(=O)[C@H](CCCNC(=N)N)NC(=O)[C@H](Cc1ccccc1)NC(=O)[C@@H](N)CCCCN)C(=O)NC(C)(C)C(=O)N[C@@H](Cc1ccc(Br)cc1)C(=O)O [Peptide 13, Lys-Phe-Arg-Arg-Gln-Arg-Pro-αMeArg-Leu-Ser-His-Lys-Gly-Pro-Nle-Aib-paraBrPhe] (H-KFRRQRP[αMeR]LSHKGP[Nle][Aib][Phe(4-Br)]-OH; N-terminus and C-terminus assumed) | Ki [2]: 130 ± 32 pM; effect on heart rate (HR) (anesthetized mice): had an impact on the heart rate; blood pressure lowering (hypotensive) effect (anesthetized mice): without inducing any vasoactive effects |
